Measured values taken from patent US20260297080A1, “BICYCLIC COMPOUNDS AS CDK INHIBITORS” (BeOne Medicines I GmbH, priority 2022, published 2026).

Assays:
CDK1/Cyclin B1 = CDK1/Cyclin B1 (Homo sapiens, UniProt P06493); test: CDK1/Cyclin B1 Biochemical Assay (TR-FRET), 1 mM ATP; conditions: 0.15 μM Rb (Ser780)-biotin substrate, pH7.0, 60 min preincubation, 90 min reaction, room temperature
Experimental: (§1) CDK2/Cyclin E1 and CDK1/Cyclin B1 Biochemical Assays
(§2) Compounds disclosed herein were tested for inhibition of CDK2/Cyclin E1 or CDK1/Cyclin B1 kinase in an assay based on the time-resolved fluorescence-resonance energy transfer (TR-FRET) methodology. The assay was carried out in 384-well low volume black plates in a reaction mixture containing CDK2/Cyclin E1 or CDK1/Cyclin B1, 1 mM ATP for CDK2/Cyclin E1 and CDK1/Cyclin B1, 0.15 μM Rb (Ser780)-biotin substrate and 0-10 μM compound in buffer containing 50 mM HEPES pH7.0, 0.02% NaN3, 0.01% BSA, 0.1 mM Orthovanadate, 50 mM MgCl2, 1 mM DTT and 0.005% Tween-20. The kinase was incubated with compound for 60 minutes at room temperature and the reaction was initiated by the addition of ATP and Rb (Ser780)-biotin substrate. After reaction at room temperature for 90 minutes, an equal volume of stop/detection solution was added according to the manufacture's instruction (Cisbio Bioassays). The stop/detection solution contained Streptavidin-XL665 and Anti-pRb (Ser780) mAb-Eu Cryptate in Detection buffer (Cisbio Bioassays). Plates were incubated at room temperature for 60 minutes, and the TR-FRET signals (ex337 nm, em665 nm/620 nm) were recorded on a PHERAstar FSX plate reader (BMG Labtech). The inhibition percentage of CDK2/Cyclin E1 or CDK1/Cyclin B1 kinase activity in presence of increasing concentrations of compounds was calculated based on the ratio of fluorescence at 665 nm to that at 620 nm. The IC50 for each compound was derived from fitting the data to the four-parameter logistic equation by Dotmatics.

CDK2/Cyclin E1 = CDK2/Cyclin E1 (Homo sapiens, UniProt P24941); test: CDK2/Cyclin E1 Biochemical Assay (TR-FRET), 1 mM ATP; conditions: 0.15 μM Rb (Ser780)-biotin substrate, pH7.0, 60 min preincubation, 90 min reaction, room temperature
Experimental: as §1, §2

Chain of CDK1/Cyclin B1 (P06493 whole entry): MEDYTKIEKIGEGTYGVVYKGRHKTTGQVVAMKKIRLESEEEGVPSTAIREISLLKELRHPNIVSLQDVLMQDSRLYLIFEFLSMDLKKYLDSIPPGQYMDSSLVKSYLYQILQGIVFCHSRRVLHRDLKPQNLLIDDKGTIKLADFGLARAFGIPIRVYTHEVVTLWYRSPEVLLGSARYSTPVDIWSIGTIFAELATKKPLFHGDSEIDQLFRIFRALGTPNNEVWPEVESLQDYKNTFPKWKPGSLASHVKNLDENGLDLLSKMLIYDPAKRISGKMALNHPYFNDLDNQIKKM
Chain of CDK1/Cyclin B1 (P14635 whole entry partner): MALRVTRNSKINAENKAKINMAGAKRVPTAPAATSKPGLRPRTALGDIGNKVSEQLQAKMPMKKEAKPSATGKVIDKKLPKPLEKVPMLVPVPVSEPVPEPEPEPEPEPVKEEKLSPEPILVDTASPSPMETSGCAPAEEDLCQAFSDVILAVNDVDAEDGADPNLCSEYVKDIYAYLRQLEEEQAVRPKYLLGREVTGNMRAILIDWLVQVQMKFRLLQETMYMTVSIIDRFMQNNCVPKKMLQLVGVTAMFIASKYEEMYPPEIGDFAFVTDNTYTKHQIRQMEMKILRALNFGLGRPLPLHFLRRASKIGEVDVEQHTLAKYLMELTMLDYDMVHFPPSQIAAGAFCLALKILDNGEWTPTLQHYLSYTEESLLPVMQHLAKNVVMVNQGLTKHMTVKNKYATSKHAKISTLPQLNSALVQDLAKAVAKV

CC1(C)CCN1C(=O)O[C@H]1CC[C@@H](c2cc(Nc3cc4c(cc3F)S(=O)(=O)NC4)n[nH]2)C1 (relative stereo) [Example 449, cis-3-(3-((6-fluoro-1,1-dioxido-2,3-dihydrobenzo[d]isothiazol-5-yl)amino)-1H-pyrazol-5-yl)cyclopentyl 2,2-dimethylazetidine-1-carboxylate]
IC50 (CDK1/Cyclin B1): 1.19 µM
IC50 (CDK2/Cyclin E1): 0.0041 µM

O=C(NC12CC(O)(C1)C2)O[C@H]1CC[C@@H](c2cc(Nc3cc4c(cc3F)S(=O)(=O)NC4)n[nH]2)C1 (relative stereo) [Example 456, cis-3-(3-((6-fluoro-1,1-dioxido-2,3-dihydrobenzo[d]isothiazol-5-yl)amino)-1H-pyrazol-5-yl)cyclopentyl(3-hydroxybicyclo[1.1.1]pentan-1-yl)carbamate]
IC50 (CDK1/Cyclin B1): 0.55 µM
IC50 (CDK2/Cyclin E1): 0.0005 µM

CC(C)NC(=O)O[C@H]1CC[C@@H](c2cc(Nc3ccc4c(c3F)CS(=O)(=O)N4CC(C)(C)O)n[nH]2)C1 (single isomer, unassigned) [Example 254a, cis-3-(3-((4-fluoro-1-(2-hydroxy-2-methylpropyl)-2,2-dioxido-1,3-dihydrobenzo[c]isothiazol-5-yl)amino)-1H-pyrazol-5-yl)cyclopentyl isopropylcarbamate]
IC50 (CDK1/Cyclin B1): 3.74 µM
IC50 (CDK2/Cyclin E1): 0.012 µM

CN1c2ccc(Nc3cc([C@@H]4CC[C@H](OC(=O)NC56CC(C5)C6)C4)[nH]n3)c(F)c2CS1(=O)=O (relative stereo) [Example 452, cis-3-(3-((4-fluoro-1-methyl-2,2-dioxido-1,3-dihydrobenzo[c]isothiazol-5-yl)amino)-1H-pyrazol-5-yl)cyclopentyl bicyclo[1.1.1]pentan-1-ylcarbamate]
IC50 (CDK1/Cyclin B1): 0.487 µM
IC50 (CDK2/Cyclin E1): 0.0005 µM

CC1(NC(=O)O[C@H]2CC[C@@H](c3cc(Nc4ccc5c(c4F)CCS(=O)(=O)N5)n[nH]3)C2)CC1 (relative stereo) [Example 462, cis-3-(3-((5-fluoro-2,2-dioxido-3,4-dihydro-1H-benzo[c][1,2]thiazin-6-yl)amino)-1H-pyrazol-5-yl)cyclopentyl(1-methylcyclopropyl)carbamate]
IC50 (CDK1/Cyclin B1): 0.349 µM
IC50 (CDK2/Cyclin E1): 0.0007 µM

CC1(NC(=O)O[C@H]2CC[C@@H](c3cc(Nc4ccc5c(c4F)CS(=O)(=O)N5)n[nH]3)C2)CCC1 (single isomer, unassigned) [Example 427b]
IC50 (CDK1/Cyclin B1): 0.068 µM
IC50 (CDK2/Cyclin E1): 0.0008 µM

CC(C)(CO)NC(=O)O[C@H]1CC[C@@H](c2cc(Nc3ccc4c(c3F)CS(=O)(=O)N4)n[nH]2)C1 (relative stereo) [Example 443, cis-3-(3-((4-fluoro-2,2-dioxido-1,3-dihydrobenzo[c]isothiazol-5-yl)amino)-1H-pyrazol-5-yl)cyclopentyl(1-hydroxy-2-methylpropan-2-yl)carbamate]
IC50 (CDK1/Cyclin B1): 0.582 µM
IC50 (CDK2/Cyclin E1): 0.0016 µM

O=C(N[C@@H]1C[C@H]1O)O[C@H]1CC[C@@H](c2cc(Nc3ccc4c(c3F)CNS4(=O)=O)n[nH]2)C1 (relative stereo) [Example 442, cis-3-(3-((4-fluoro-1,1-dioxido-2,3-dihydrobenzo[d]isothiazol-5-yl)amino)-1H-pyrazol-5-yl)cyclopentyl((1R,2R)-2-hydroxycyclopropyl)carbamate]
IC50 (CDK1/Cyclin B1): 2.99 µM
IC50 (CDK2/Cyclin E1): 0.055 µM

CCNC(=O)O[C@H]1CC[C@@H](c2cc(Nc3cc4c(cc3F)S(=O)(=O)NC4)n[nH]2)C1 (relative stereo) [Example 421, cis-3-(3-((6-fluoro-1,1-dioxido-2,3-dihydrobenzo[d]isothiazol-5-yl)amino)-1H-pyrazol-5-yl)cyclopentyl ethylcarbamate]
IC50 (CDK1/Cyclin B1): > 10 µM
IC50 (CDK2/Cyclin E1): 0.135 µM

CCC(=O)CNC(=O)O[C@H]1CC[C@@H](c2cc(Nc3ccc4c(c3F)CS(=O)(=O)N4)n[nH]2)C1 (relative stereo) [Example 432, cis-3-(3-((4-fluoro-2,2-dioxido-1,3-dihydrobenzo[c]isothiazol-5-yl)amino)-1H-pyrazol-5-yl)cyclopentyl(2-oxobutyl)carbamate]
IC50 (CDK1/Cyclin B1): 1.32 µM
IC50 (CDK2/Cyclin E1): 0.023 µM

CN(C(=O)O[C@H]1CC[C@@H](c2cc(Nc3ccc4c(c3F)CNS4(=O)=O)n[nH]2)C1)C1CCOC1 (relative stereo) [Example 437, cis-3-(3-((4-fluoro-1,1-dioxido-2,3-dihydrobenzo[d]isothiazol-5-yl)amino)-1H-pyrazol-5-yl)cyclopentyl methyl(tetrahydrofuran-3-yl)carbamate]
IC50 (CDK1/Cyclin B1): > 10 µM
IC50 (CDK2/Cyclin E1): 0.249 µM

CN1c2ccc(Nc3cc([C@@H]4CC[C@H](OC(=O)NCC5(O)CC5)C4)[nH]n3)cc2CS1(=O)=O (relative stereo) [Example 426, cis-3-(3-((1-methyl-2,2-dioxido-1,3-dihydrobenzo[c]isothiazol-5-yl)amino)-1H-pyrazol-5-yl)cyclopentyl((1-hydroxycyclopropyl)methyl)carbamate]
IC50 (CDK1/Cyclin B1): 4.87 µM
IC50 (CDK2/Cyclin E1): 0.051 µM

CC(C)(CO)NC(=O)O[C@H]1CC[C@@H](c2cc(Nc3ccc4c(c3F)CS(=O)(=O)N4C3CC3)n[nH]2)C1 (single isomer, unassigned) [Example 363a, cis-3-(3-((1-cyclopropyl-4-fluoro-2,2-dioxido-1,3-dihydrobenzo[c]isothiazol-5-yl)amino)-1H-pyrazol-5-yl)cyclopentyl(1-hydroxy-2-methylpropan-2-yl)carbamate]
IC50 (CDK1/Cyclin B1): 2.42 µM
IC50 (CDK2/Cyclin E1): 0.0022 µM

CC1(NC(=O)O[C@H]2CC[C@@H](c3cc(Nc4cc5c(cc4F)S(=O)(=O)NC5)n[nH]3)C2)CCOC1 (relative stereo) [Example 450, cis-3-(3-((6-fluoro-1,1-dioxido-2,3-dihydrobenzo[d]isothiazol-5-yl)amino)-1H-pyrazol-5-yl)cyclopentyl(3-methyltetrahydrofuran-3-yl)carbamate]
IC50 (CDK1/Cyclin B1): 6.18 µM
IC50 (CDK2/Cyclin E1): 0.0076 µM

CC(C)(CO)NC(=O)O[C@H]1CC[C@@H](c2cc(Nc3ccc4c(c3F)CS(=O)(=O)N4C3CC3)n[nH]2)C1 (single isomer, unassigned) [Example 363b, cis-3-(3-((1-cyclopropyl-4-fluoro-2,2-dioxido-1,3-dihydrobenzo[c]isothiazol-5-yl)amino)-1H-pyrazol-5-yl)cyclopentyl(1-hydroxy-2-methylpropan-2-yl)carbamate]
IC50 (CDK1/Cyclin B1): 0.863 µM
IC50 (CDK2/Cyclin E1): 0.0015 µM

O=C(NC12CC(C1)C2)O[C@H]1CC[C@@H](c2cc(Nc3cc4c(cc3F)S(=O)(=O)NC4)n[nH]2)C1 (single isomer, unassigned) [Example 422a, cis-3-(3-((6-fluoro-1,1-dioxido-2,3-dihydrobenzo[d]isothiazol-5-yl)amino)-1H-pyrazol-5-yl)cyclopentyl bicyclo[1.1.1]pentan-1-ylcarbamate]
IC50 (CDK1/Cyclin B1): 3.25 µM
IC50 (CDK2/Cyclin E1): 0.0023 µM
